Data published in US7078195B2, “Antibiotics AA-896” (Wyeth Holdings Corporation, priority 2001, dated 2006).

Columns and labels:
Assay in all cases: Broth dilution MIC
Assay type in all cases: cell-based
Conditions in all cases: Mueller-Hinton broth, 18 hours at 35° C.
S. aureus GC 4536 = system: S. aureus GC 4536
Procedure: (§1) The in vitro antibacterial activity of AA-896-A1, AA-896-A2, AA-896-A3, AA-896-A4, AA-896-A5, AA-896-B1, AA-896-B2, AA-896-B3, AA-896-B4, AA-896-B5, AA-896-B6, AA-896-B7, AA-896-C1, AA-896-C2, AA-896-C3, AA-896-C4, AA-896-D1, AA896-D2 and AA-896-D3 is determined against a spectrum of Gram-positive and Gram-negative bacteria by a standard broth dilution method. Serial dilution of the compounds are made in Mueller-Hinton broth and inoculated with a bacterial suspension. The lowest concentration of compound that inhibited the growth of a bacterial strain after 18 hours of incubation at 35° C. is reported as the minimal inhibitory concentration (MIC) for that strain.

S. marcescens GC 4077 = system: S. marcescens GC 4077
Procedure: as §1

P. rettgeri GC 4530 = system: P. rettgeri GC 4530
Procedure: as §1

E. faecalis GC 4555 = system: E. faecalis GC 4555
Procedure: as §1

S. aureus GC 2216 = system: S. aureus GC 2216
Procedure: as §1

P. aeruginosa GC 4532 = system: P. aeruginosa GC 4532
Procedure: as §1

E. faecalis GC 242 = system: E. faecalis GC 242
Procedure: as §1

M. morganii GC 4531 = system: M. morganii GC 4531
Procedure: as §1

E. coli GC 3226 = system: E. coli GC 3226
Procedure: as §1

E. cloacae GC 3783 = system: E. cloacae GC 3783
Procedure: as §1

S. aureus GC 1131 = system: S. aureus GC 1131
Procedure: as §1

E. coli GC 4559 = system: E. coli GC 4559
Procedure: as §1

E. faecalis GC 842 = system: E. faecalis GC 842
Procedure: as §1

K. pneumoniae GC 4534 = system: K. pneumoniae GC 4534
Procedure: as §1

E. coli GC 2203 = system: E. coli GC 2203
Procedure: as §1

CNS GC 4547 = system: CNS GC 4547
Procedure: as §1

P. aeruginosa GC 2214 = system: P. aeruginosa GC 2214
Procedure: as §1

CNS GC 4537 = system: CNS GC 4537
Procedure: as §1

E. coli GC 4560 = system: E. coli GC 4560
Procedure: as §1

CNS GC 4538 = system: CNS GC 4538
Procedure: as §1

Row | Compound | Antimicrobial Activity (MIC) (S. aureus GC 4536) [mg/L] | Antimicrobial Activity (MIC) (S. marcescens GC 4077) [mg/L] | Antimicrobial Activity (MIC) (P. rettgeri GC 4530) [mg/L] | Antimicrobial Activity (MIC) (E. faecalis GC 4555) [mg/L] | Antimicrobial Activity (MIC) (S. aureus GC 2216) [mg/L] | Antimicrobial Activity (MIC) (P. aeruginosa GC 4532) [mg/L] | Antimicrobial Activity (MIC) (E. faecalis GC 242) [mg/L] | Antimicrobial Activity (MIC) (M. morganii GC 4531) [mg/L] | Antimicrobial Activity (MIC) (E. coli GC 3226) [mg/L] | Antimicrobial Activity (MIC) (E. cloacae GC 3783) [mg/L] | Antimicrobial Activity (MIC) (S. aureus GC 1131) [mg/L] | Antimicrobial Activity (MIC) (E. coli GC 4559) [mg/L] | Antimicrobial Activity (MIC) (E. faecalis GC 842) [mg/L] | Antimicrobial Activity (MIC) (K. pneumoniae GC 4534) [mg/L] | Antimicrobial Activity (MIC) (E. coli GC 2203) [mg/L] | Antimicrobial Activity (MIC) (CNS GC 4547) [mg/L] | Antimicrobial Activity (MIC) (P. aeruginosa GC 2214) [mg/L] | Antimicrobial Activity (MIC) (CNS GC 4537) [mg/L] | Antimicrobial Activity (MIC) (E. coli GC 4560) | Antimicrobial Activity (MIC) (CNS GC 4538) [mg/L]
1 | 5-O-[5-Amino-5-deoxy-β-D-ribofuranosyl]-6-[[3-[3-[[13-(carbamimidoylhydroxyamino)-tridecanoyl]oxy]-2-[2-[[(1-carboxy-2-methylpropyl)carbamoyl]amino]-2-(hexahydro-2-iminopyrimidin-4-yl)acetamido]-4-methylpentanamido]propyl]amino]-1,6-dideoxy-1-(3,4-dihydro-2,4-dioxopyrimidin-1(2H)-yl)-β-D-heptofuranuronic acid [AA-896-A4] | 8 | >32 | >32 | 32 | 4 | 32 | 32 | >32 | 8 | 1 | 8 | 32 | 32 | >32 | 16 | 8 | 32 | 4 | 0.12 mg/L | 2
2 | CCC(C)CCCCC(=O)OC(C(C)C)C(NC(=O)C(NC(=O)NC(C(=O)O)C(C)C)C1CCNC(=N)N1)C(=O)NCCCNC(C(=O)O)C(O[C@@H]1O[C@H](CN)[C@@H](O)[C@H]1OC)C1OC(n2ccc(=O)[nH]c2=O)C(O)C1O (stereo partly drawn) [AA-896-B3, 5-O-[5-Amino-5-deoxy-2-O-methyl-β-D-ribofuranosyl]-6-[[3-[2-[2-[[(1-carboxy-2-methyl-propyl)carbamoyl]amino]-2-(hexahydro-2-iminopyrimidin-4-yl)acetamido]-4-methyl-3-[(6-methyloctanoyl)oxy]pentanamido]propyl]amino]-1,6-dideoxy-1-(3,4-dihydro-2,4-dioxopyrimidin-1(2H)-yl)-β-D-heptofuranuronic acid] | >32 | >32 | >32 | >32 | >32 | >32 | >32 | >32 | 32 | 16 | >32 | >32 | >32 | >32 | >32 | >32 | >32 | >32 | 0.06 mg/L | >32
3 | COC1C(OC(C(NCCCNC(=O)C(NC(=O)C(NC(=O)NC(C(=O)O)C(C)C)C2CCNC(=N)N2)C(OC(=O)CCCCCC(C)C)C(C)C)C(=O)O)C2OC(n3ccc(=O)[nH]c3=O)C(O)C2O)OC(CN)C1O [AA-896-B4, 5-O-[5-Amino-5-deoxy-2-O-methyl-β-D-ribofuranosyl]-6-[[3-[2-[2-[[(1-carboxy-2-methyl-propyl)carbamoyl]amino]-2-(hexahydro-2-iminopyrimidin-4-yl)acetamido]-4-methyl-3-[(7-methyloctanoyl)oxy]pentanamido]propyl]amino]-1,6-dideoxy-1-(3,4-dihydro-2,4-dioxopyrimidin-1(2H)-yl)-β-D-heptofuranuronic acid] | 64 | >64 | >64 | 64 | 64 | 64 | >64 | >64 | 64 | 8 | 64 | 8 | >64 | 16 | 32 | >64 | 32 | 64 | <=0.06 μg/ml | 32

Further lines, results first:

Row | Antimicrobial Activity (MIC) (S. aureus GC 4536) [mg/L] | Antimicrobial Activity (MIC) (S. marcescens GC 4077) [mg/L] | Antimicrobial Activity (MIC) (P. rettgeri GC 4530) [mg/L] | Antimicrobial Activity (MIC) (E. faecalis GC 4555) [mg/L] | Antimicrobial Activity (MIC) (S. aureus GC 2216) [mg/L] | Antimicrobial Activity (MIC) (P. aeruginosa GC 4532) [mg/L] | Antimicrobial Activity (MIC) (E. faecalis GC 242) [mg/L] | Antimicrobial Activity (MIC) (M. morganii GC 4531) [mg/L] | Antimicrobial Activity (MIC) (E. coli GC 3226) [mg/L] | Antimicrobial Activity (MIC) (E. cloacae GC 3783) [mg/L] | Antimicrobial Activity (MIC) (S. aureus GC 1131) [mg/L] | Antimicrobial Activity (MIC) (E. coli GC 4559) [mg/L] | Antimicrobial Activity (MIC) (E. faecalis GC 842) [mg/L] | Antimicrobial Activity (MIC) (K. pneumoniae GC 4534) [mg/L] | Antimicrobial Activity (MIC) (E. coli GC 2203) [mg/L] | Antimicrobial Activity (MIC) (CNS GC 4547) [mg/L] | Antimicrobial Activity (MIC) (P. aeruginosa GC 2214) [mg/L] | Antimicrobial Activity (MIC) (CNS GC 4537) [mg/L] | Antimicrobial Activity (MIC) (E. coli GC 4560) | Antimicrobial Activity (MIC) (CNS GC 4538) [mg/L] | Compound
4 | >32 | >32 | >32 | >32 | >32 | >32 | >32 | >32 | 32 | 32 | >32 | >32 | >32 | >32 | 32 | >32 | 32 | >32 | 1 mg/L | >32 | COC1C(OC(C(NCCCNC(=O)C(NC(=O)C(NC(=O)NC(C(=O)O)C(C)C)C2CCNC(=N)N2)C(O)C(C)C)C(=O)O)C2OC(n3ccc(=O)[nH]c3=O)C(O)C2O)OC(CN)C1O [AA-896-C1, 5-O-[5-Amino-5-deoxy-2-O-methyl-β-D-ribofuranosyl]-6-[[3-[2-[2-[[(1-carboxy-2-methyl-propyl)carbamoyl]amino]-2-(hexahydro-2-iminopyrimidin-4-yl)acetamido]-3-hydroxy-4-methylpentanamido]propyl]amino]-1,6-dideoxy-1-(3,4-dihydro-2,4-dioxopyrimidin-1(2H)-yl)-β-D-heptofuranuronic acid]
5 | >32 | >32 | >32 | >32 | >32 | 32 | >32 | >32 | 16 | 16 | >32 | >32 | >32 | >32 | 16 | >32 | 32 | >32 | 2 mg/L | >32 | CC(C)C(NC(=O)NC(C(=O)NC(C(=O)NCCCNC(C(=O)O)C(O[C@@H]1O[C@H](CN)[C@@H](O)[C@H]1O)C1OC(n2ccc(=O)[nH]c2=O)C(O)C1O)C(O)C(C)C)C1CCNC(=N)N1)C(=O)O (stereo partly drawn) [AA-896-C2, 5-O-[5-Amino-5-deoxy-β-D-ribofuranosyl]-6-[[3-[2-[2-[[(1-carboxy-2-methylpropyl)-carbamoyl]amino]-2-(hexahydro-2-iminopyrimidin-4-yl)acetamido]-3-hydroxy-4-methyl-pentanamido]propyl]amino]-1,6-dideoxy-1-(3,4-dihydro-2,4-dioxopyrimidin-1(2H)-yl)-β-D-heptofuranuronic acid]
